Experimental findings from patent US20160145247A1, “Aminomethyl-Biaryl Derivatives Complement Factor D inhibitors and uses thereof” (NOVARTIS AG, priority 2013, published 2016) are described below.

The IC50 is the concentration that gives 50% inhibition. A lower IC50 goes with greater potency.

The target in this experiment is T1, factor D (Homo sapiens, UniProt P00746).
T1 construct: made in house; host or cells: E. coli
T1 sequence (P00746 26-253): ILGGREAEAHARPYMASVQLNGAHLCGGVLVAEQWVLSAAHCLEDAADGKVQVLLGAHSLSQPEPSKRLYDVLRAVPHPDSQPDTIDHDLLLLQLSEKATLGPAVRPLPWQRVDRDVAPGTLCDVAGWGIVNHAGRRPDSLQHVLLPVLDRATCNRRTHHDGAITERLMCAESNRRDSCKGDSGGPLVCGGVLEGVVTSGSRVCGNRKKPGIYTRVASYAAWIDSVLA
The experiment is described as follows: factor D inhibition assay of Biological Example 2. The class given is biochemical.
Compound `NCc1cccc(-c2ccnc(COc3ccccc3CC(=O)O)c2)c1F` [Example 182, 2-(2-((4-(3-(Aminomethyl)-2-fluorophenyl)pyridin-2-yl)methoxy)phenyl)acetic acid] returned an IC50 of 8 nM.

`C[C@@H](N)c1cccc(-c2cc(COc3ccccc3CC(=O)O)c(F)c(NCC3CCCO3)c2)c1F` (mixture of isomers) [Example 221 b), 2-(2-((3′-((R)-1-aminoethyl)-2′,4-difluoro-5-(((tetrahydrofuran-2-yl)methyl)amino)-[1,1′-biphenyl]-3-yl)methoxy)phenyl)acetic acid] returned an IC50 of 4 nM.

Turning to `NCc1cc(F)cc(-c2cccc(C(=O)Nc3cc(Br)ccc3CC(=O)O)c2)c1` [Example 21-A], the midpoint of inhibition, the IC50, lay at 414 nM.

On to `C[C@@H](N)c1cccc(-c2cc(COc3ccccc3CC(=O)O)cc(NCC3(C)CC3)c2)c1F` [Example 227, (R)-2-(2-((3′-(1-aminoethyl)-2′-fluoro-5-(((1-methylcyclopropyl)methyl)amino)-[1,1′-biphenyl]-3-yl)methoxy)phenyl)acetic acid], for which half-maximal inhibition (IC50) required 10 nM.

`COC(=O)Cc1ccccc1NC(=O)c1ccc(OC)c(-c2cccc(CN)c2)c1` [Example 8-A, Methyl 2-(2-(3′-(aminomethyl)-6-methoxy-[1,1′-biphenyl]-3-ylcarboxamido)phenyl)acetate] returned an IC50 of 5050 nM.

In the case of `C[C@@H](N)c1cccc(-c2cc(CCC3CCCO3)cc(COc3ccccc3CC(=O)O)c2)c1F` (stereo partly drawn) [Example 236-C, 2-(2-((3′-((R)-1-aminoethyl)-2′-fluoro-5-(2-(tetrahydrofuran-2-yl)ethyl)-[1,1′-biphenyl]-3-yl)methoxy)phenyl)acetic acid], the midpoint of inhibition, the IC50, lay at 9 nM.

`COc1ccc(C(=O)Nc2ccccc2CC(=O)O)cc1-c1cccc(CN)c1` [Example 8-B, 2-(2-(3′-(Aminomethyl)-6-methoxy-[1,1′-biphenyl]-3-ylcarboxamido)phenyl)acetic acid]: the IC50 came out at 353 nM.

In turn, `NCc1cccc(-c2cc(Cl)cc(COc3ccccc3CC(=O)O)c2)c1` [Example 102-B, 2-(2-((3′-(Aminomethyl)-5-chloro-[1,1′-biphenyl]-3-yl)methoxy)phenyl)acetic acid] displayed an IC50 of 9 nM.

The compound `CN(C)c1cc(COc2ccccc2CC(=O)O)cc(-c2cccc([C@H](N)CO)c2)c1` [Example 132, (S)-2-(2-((3′-(1-Amino-2-hydroxyethyl)-5-(dimethylamino)-[1,1′-biphenyl]-3-yl)methoxy)phenyl)acetic acid] registered an IC50 of 18 nM.

On to `NCc1cccc(-c2cccc(C(=O)Nc3ccccc3CC(N)=O)c2)c1` [Example 3-B, N-(2-(2-Amino-2-oxoethyl)phenyl)-3′-(aminomethyl)-[1,1′-biphenyl]-3-carboxamide], for which the IC50 amounted to 80200 nM.

With `CC(=O)NCc1ccc(CC(=O)O)c(OCc2cccc(-c3cccc(CN)c3)c2)c1` [Example 294-D], the midpoint of inhibition, the IC50, lay at 10 nM.

Consider `C[C@H](N)c1cccc(-c2cc(COc3ccccc3CC(=O)O)cc(OCCF)c2)c1F` [Example 214-O], for which it took 71 nM to reach half-maximal inhibition (IC50).

With `NCc1cc(F)cc(-c2cccc(C(=O)Nc3ccccc3CC(=O)O)n2)c1` [Example 20-B, 2-(2-(6-(3-(Aminomethyl)-5-fluorophenyl)picolinamido)phenyl)acetic acid], half-maximal inhibition (IC50) required 16 nM.

In the case of `C[C@@H](N)c1cccc(-c2cc(COc3ccccc3CC(=O)O)cc(COC3CCOc4ccc(Cl)cc43)c2)c1F` (some centres unmarked) [Example 120-S], the IC50 was 21 nM.

In turn, `C[C@@H](N)c1cccc(-c2cc(NC[C@H]3CCCO3)c3c(c2)C(Oc2ccccc2CC(=O)O)CCO3)c1F` (some centres unmarked) [Example 216-W] displayed an IC50 of 17 nM.

For `CC(C(=O)O)c1ccccc1NC(=O)c1cccc(-c2cc(F)cc(CN)c2)c1` (racemic) [Example 19-B, (±)-2-(2-(3′-(Aminomethyl)-5′-fluoro-[1,1′-biphenyl]-3-ylcarboxamido)phenyl)propanoic acid], the IC50 worked out at 666 nM.

On to `CNc1cc(C(=O)Nc2ccccc2CC(=O)O)nc(-c2cccc(CN)c2)c1` [Example 46, 2-(2-(6-(3-(aminomethyl)phenyl)-4-(methylamino)picolinamido)phenyl)acetic acid], for which the IC50 came out at 6 nM.

As for `NCc1cc(F)cc(-c2cc(C(=O)Nc3ccccc3CC(=O)O)cc(-c3cnoc3)c2)c1` [Example 11-D, 2-(2-(3′-(Aminomethyl)-5′-fluoro-5-(isoxazol-4-yl)-[1,1′-biphenyl]-3-ylcarboxamido)phenyl)acetic acid], the IC50 worked out at 17 nM.

The compound `CCC[C@@H](N)c1cccc(-c2cc(COc3ccccc3CC(=O)O)cc(NCCOC)c2)c1` [Example 201, (R)-2-(2-((3′-(1-Aminobutyl)-5-((2-methoxyethyl)amino)-[1,1′-biphenyl]-3-yl)methoxy)phenyl)acetic acid] came in with an IC50 of 113 nM.

Take `CC(C)CNc1cc(COc2ccccc2CC(=O)O)cc(-c2cccc([C@@H](C)N)c2F)c1` [Example 224-B, (R)-2-(2-((3′-(1-aminoethyl)-2′-fluoro-5-(isobutylamino)-[1,1′-biphenyl]-3-yl)methoxy)phenyl)acetic acid]: the IC50 is 9 nM.

With `NCc1cccc(-c2nc(C(=O)Nc3ccccc3CC(=O)O)cs2)c1` [Example 27, 2-(2-(2-(3-(Aminomethyl)phenyl)thiazole-4-carboxamido)phenyl)acetic acid], inhibition was half-maximal at 50 nM (IC50).

For the compound `Cc1ccc(-c2cccc([C@H](C)N)c2F)cc1COc1ccccc1CC(=O)O` [Example 274, (S)-2-(2-((3′-(1-aminoethyl)-2′-fluoro-4-methyl-[1,1′-biphenyl]-3-yl)methoxy)phenyl)acetic acid], 340 nM corresponded to half-maximal inhibition (IC50).

`Cn1ccc(COc2cc(C(=O)Nc3ccccc3CC(=O)O)cc(-c3cccc(CN)c3)c2)n1` [Example 66, 2-(2-(3′-(Aminomethyl)-5-((1-methyl-1H-pyrazol-3-yl)methoxy)-[1,1′-biphenyl]-3-ylcarboxamido)phenyl)acetic acid] showed an IC50 of 33 nM.

The compound `COCCNc1cc(C(=O)Nc2ccccc2CC(=O)O)cc(-c2cccc([C@H](N)CO)c2)c1` [Example 83-D, (S)-2-(2-(3′-(1-amino-2-hydroxyethyl)-5-((2-methoxyethyl)amino)-[1,1′-biphenyl]-3-ylcarboxamido)phenyl)acetic acid] returned an IC50 of 22 nM.

`N[C@H](CCO)c1cccc(-c2cccc(C(=O)Nc3ccccc3CC(=O)O)c2)c1` [Example 88, (R)-2-(2-(3′-(1-Amino-3-hydroxypropyl)-[1,1′-biphenyl]-3-ylcarboxamido)phenyl)acetic acid] displayed an IC50 of 958 nM.

As for `NC(CF)c1cccc(-c2cc(COc3ccccc3CC(=O)O)cc(NCC3CCCC3)c2)c1F` (centres unmarked) [Example 216-E], the IC50 was found to be 6 nM.

On to `CNCc1cccc(-c2cccc(COc3ccccc3CC(=O)O)c2)c1` [Example 288, 2-(2-((3′-((methylamino)methyl)-[1,1′-biphenyl]-3-yl)methoxy)phenyl)acetic acid], for which the IC50 was determined as 3430 nM.

For the compound `C[C@@H](N)c1cccc(-c2cc(COc3ccccc3CC(=O)O)cc(S(C)(=O)=O)c2)c1` [Example 251, (R)-2-(2-((3′-(1-aminoethyl)-5-(methylsulfonyl)-[1,1′-biphenyl]-3-yl)methoxy)phenyl)acetic acid], the IC50 stood at 158 nM.

In the case of `NCc1cc(F)cc(-c2cccc(C(=O)Nc3c(Br)cccc3CC(=O)O)n2)c1` [Example 21-E], the IC50 is 86 nM.

For `NCc1cccc(-c2cc(CNCC(F)(F)F)cc(COc3ccccc3CC(=O)O)c2)c1` [Example 208-E], the IC50 came out at 3 nM.

On to `NCc1cc(F)cc(-c2nc(C(=O)Nc3ccccc3CC(=O)O)c(C3CC3)s2)c1` [Example 35-B, 2-(2-(2-(3-(Aminomethyl)-5-fluorophenyl)-5-cyclopropylthiazole-4-carboxamido)phenyl)acetic acid], for which the IC50 was 13 nM.

Turning to `COc1ccc(-c2cccc([C@@H](C)N)c2F)cc1COc1ccccc1CC(=O)O` [Example 276, (R)-2-(2-((3′-(1-aminoethyl)-2′-fluoro-4-methoxy-[1,1′-biphenyl]-3-yl)methoxy)phenyl)acetic acid], the IC50 was 160 nM.

As for `CCCC[C@@H](N)c1cccc(-c2cccc(COc3ccccc3CC(=O)O)c2)c1` [Example 196-D], the IC50 is 642 nM.

`C[C@H](N)c1cccc(-c2cccc(COc3ccccc3CC(=O)O)c2)c1F` [Example 142-H] yielded an IC50 of 22 nM.

The compound `CNC(c1cc(COc2ccccc2CC(=O)O)cc(-c2cccc(CN)c2)c1)C(F)(F)F` (centres unmarked) [Example 208-A] yielded an IC50 of 19 nM.

In turn, `CCN(C[C@@H]1CCCO1)c1cc(COc2ccccc2CC(=O)O)cc(-c2cccc([C@@H](C)N)c2F)c1` [Example 216-J] registered an IC50 of 3 nM.

In the case of `CC(Oc1ccccc1CC(=O)O)c1cccc(-c2cccc(CN)c2F)c1` (racemic) [Example 183, (±)-2-(2-(1-(3′-(Aminomethyl)-2′-fluoro-[1,1′-biphenyl]-3-yl)ethoxy)phenyl)acetic acid], inhibition was half-maximal at 29 nM (IC50).

Regarding `NCc1cccc(-c2cc(COc3ccccc3CC(=O)O)cc(C(N)C(F)(F)F)c2)c1` (racemic) [Example 207-B, (±)-2-(2-((5-(1-Amino-2,2,2-trifluoroethyl)-3′-(aminomethyl)-[1,1′-biphenyl]-3-yl)methoxy)phenyl)acetic acid], the IC50 stood at 5 nM.

Regarding `C[C@@H](N)c1cccc(-c2cccc(COc3ccccc3CC(=O)O)c2F)c1` [Example 125, (R)-2-(2-((3′-(1-Aminoethyl)-2-fluoro-[1,1′-biphenyl]-3-yl)methoxy)phenyl)acetic acid], half-maximal inhibition (IC50) required 4450 nM.

With `NC(CCF)c1cccc(-c2cccc(COc3ccccc3CC(=O)O)c2)c1` (centres unmarked) [Example 278-B, 2-(2-((3′-(1-amino-3-fluoropropyl)-[1,1′-biphenyl]-3-yl)methoxy)phenyl)acetic acid], the IC50 worked out at 490 nM.

The compound `N[C@H](CO)c1cccc(-c2cc(COc3ccccc3CC(=O)O)cc(OCC3CC3)c2)c1` [Example 147-B, (S)-2-(2-((3′-(1-Amino-2-hydroxyethyl)-5-(cyclopropylmethoxy)-[1,1′-biphenyl]-3-yl)methoxy)phenyl)acetic acid] returned an IC50 of 5 nM.
